Test system: TGN-resident K^+ channels
Settings: UT HEK 293T cells; TEA 10 mM, 10 min; resting ~102 mM
Procedure: EE and TGN pH and [K^+] measurements were carried out using pHlicKer^EE/TGN in HEK 293T cells transfected with hMSR1 and scFv-furin respectively. For EEs, HEK 293T cells were pulsed with 250 nM pHlicKer^EE for 10 min and chased for 10 min. For TGN, HEK 293T cells were pulsed with 250 nM pHlicKer^TGN for 90 min and chased for 90 min. Cells were washed with 1×PBS three times and then imaged. For recycling endosomes, HEK 293T cells were pulsed with 250 nM pHlicKer^RE for 15 min and chased for 30 min. Cells were washed with 1×PBS three times and then imaged using a widefield microscope.
Calculating pH-corrected [K^+] in early endosomes, trans-Golgi network, and recycling endosomes. To correct for pH and obtain K^+ values, the Kd of pHlicKer in single endosomes was calculated based on the Kd calibration plot versus pH. The pH of the organelle was measured from the D/A values calibrated across pH 5.5-7.0. Donor (D) and acceptor (A) images were background subtracted by drawing a region of interest outside the cells. The D image was duplicated, and a threshold was set to create a binary mask. Background-subtracted D and A images were then multiplied with the binary mask to get processed D and A images.

Structure (SMILES): CC[N+](CC)(CC)CC.[Cl-] [TEA, tetraethyl ammonium chloride]
- [K+]TGN: ~73 mM
